We go through 1 molecule from patent US20130011376A1, “Methods for Enhancing Natural Killer Cell Proliferation and Activity” (GAMIDA CELL LTD., priority 2009, published 2013).

Series [1] relates to colo205 colorectal adenocarcinoma cell line. The series is classed as cell-based. The conditions noted are these: 5 mM nicotinamide, all E:T ratios tested (1:1 to 10:1).
The next series deals with irradiated NOD/SCID mice. As to the kind of experiment: In-vivo homing and engraftment of cultured human NK cells. The note with it: 4 days post infusion. Here is the method:
NK cells were expanded with or without 2.5 mM or 5.0 mM nicotinamide, as described above. After 2-3 weeks in culture, similar numbers (15×10^6) of cells were infused into irradiated (350 Rad) NOD/SCID mice. Mice were sacrificed 4-days post infusion. Spleen, bone marrow and peripheral blood were analyzed for the homing and engraftment of human NK (CD45+CD56+) cells using […], in order to distinguish them from endogenous cells. Engraftment is expressed as the % of NK cells having the transplanted lineage (CD45+CD56+) using anti-human specific antibodies from the total number of mouse endogenous cells identified in the tissue.
Irradiated (350 Rad) NOD/SCID mice received 15×10^6 cells from human peripheral blood NK (T-cell depleted) cultures maintained for up to 3 weeks with (NAM 2.5 mM and NAM 5 mM) or without (NAM 0) nicotinamide. Upon sacrifice of the mice 4 days post infusion, samples of spleen, bone marrow and peripheral blood were evaluated by FACS for the presence of human NK cells (CD56+CD45+) using human specific Abs.

The subject of series [2] is peripheral blood CD56+ NK cells. As to the kind of experiment: CXCR4 and CD62L expression on NK cells co-cultured with irradiated mononuclear cells. The series is classed as cell-based, human. The conditions noted are these: co-culture with irradiated mononuclear cells, nicotinamide 2.5 and 5 mM. The source says:
NK cell cells from total mononuclear cell fraction, purified CD56+ or CD56+CD3− cells from total nuclear or mononuclear cells or from the fraction depleted from CD34+ or CD133+ cells, or CD3+ depleted, or CD3+/CD19+ depleted mononuclear cell fraction from PB, BM and CB can be cultured with irradiated stroma. For the preparation of irradiated stroma (feeder cells), mononuclear cells were irradiated with 3000 rad. After CD56 or CD56+CD3− selection or CD3 depletion the cells were counted and characterized by FACS analysis as described hereinabove. Cells were cultured as described hereinabove, with and without nicotinamide, with and without irradiated stroma at a concentration of irradiated cells of 20×10^5 cells/ml.
The cells were washed with a PBS solution containing 1% BSA, and stained (at 4° C. for 30 min) with fluorescein isothiocyanate (FITC)- or phycoerythrin (PE)-conjugated antibodies or allophycocyanin (APC). The cells were then washed in the above buffer and analyzed using a FACScalibur® flow cytometer (Becton Dickinson, San Jose, Calif., USA). […] Emission of 10^4 cells was measured using logarithmic amplification, and analyzed using the CellQuest software (Becton Dickinson). Cells stained with FITC, PE and APC-conjugated isotype control antibodies were used to determine background fluorescence. […]

A further series has as its system BL2 target cells. The series is classed as cell-based. The conditions noted are these: 2.5 mM or 5.0 mM nicotinamide for 3 weeks; E:T 1:1 to 10:1. How it is done: (§1) “Killing” assay: NK cells (effectors cells=E) are combined with K562 or BL2 (target cells=T), or bi-phenotypic leukemia cells at different E to T ratio (E:T). BL2 or K562, or bi-phenotypic leukemia target cells in PBS were labeled with 1 ng/ml CFSE (Invitrogen) for 15 min at 37° C. Calf Serum was added to the cells for 15 minutes, the cells were then washed and resuspended in RPMI medium. 100 μL of bi-phenotypic leukemia, BL2 or K562 cells were placed in a 96 round bottom plate at a concentration of 5×10^3 cells per well. 100 μL of non-stained NK cells were added to the bi-phenotypic leukemia, BL2 or K562 cells at a E:T ratio of 1:1, 2.5:1, 5:1, 10:1 or 20:1 (5×10^3, 1.25×10^4, 2.5×10^4, 5×10^4 and 1×10^5 cells/well, respectively, as indicated). Between 2-48 hours later. Killing of target cells in cell lines such as K562 and BL-2 was determined by FACS as a percentage propidium-iodine (PI)-positive (dead) CFSE-labeled cells. Killing of the primary leukemia cells was determined by counting with the FACS the number of CFSE stained cells that remained in the culture after their culture with the NK cells. A lower number of CFSE+ cells is indicative of higher level of killing.

In another series the test system is K562 target cells. The series is classed as cell-based. How it is done:
as §1

In series [3] the test system is human primary bi-phenotypic leukemia cells. The class given is cell-based. The note with it: after 24 hours, NK cells of 2 donors (Donor A and Donor B). How it is done:
as §1

Read-outs that look alike come from different tables or passages of the source.

With `NC(=O)c1cccnc1` [nicotinamide], the “cytotoxic potential towards solid tumor cells” value in series [1] is listed as “increased killing potential”. The “localization and engraftment, higher vs lower nicotinamide concentration” value in the series on irradiated NOD/SCID mice (5 mM compared with 2.5 mM) is recorded as “stronger effect”. Moreover, the “localization and engraftment of human NK cells (CD56+CD45+) in spleen, bone marrow and peripheral blood” value in the series with irradiated NOD/SCID mice (15x10^6 cells cultured with 2.5 mM or 5 mM nicotinamide) was “increased localization and engraftment”. Moreover, in series [2], the “expression of surface marker CD62L” value is “marked increase”. In addition, in series [2], the “expression of surface marker CXCR4” value is reported as “marked increase”. The “killing (cytotoxic) potential vs cells cultured in growth factors only” value in the series with BL2 target cells is listed as “far greater”; with K562 target cells (2.5 mM or 5.0 mM nicotinamide for 3 weeks, E:T 1:1 to 10:1), “far greater”; in the series on K562 target cells (E:T ratios of 1:5, 1:10 and 1:20 NK cells per target) it was “far greater”. The “cytotoxic potential of expanded NK cells” value in series [3] is reported as “increased activation of NK cells killing potential”.
